These results are taken from US20230172874A1, “USE OF CANNABIDIOL FOR THE TREATMENT OF INSOMNIA ASSOCIATED TO PAIN” (priority 2021, published 2023).

For one assay, the system named is rats with SNI. The assay is described as follows: Mechanical allodynia (von Frey test) after spared nerve injury. Format: in vivo, male Wistar rats. Here is the method:
Animals. The experiments were performed on male Wistar rats weighing 250 g (six weeks). All animals were housed in standardized animal facilities under a 12 h light/dark cycle (lights on at 7 AM) with ad libitum access to food and water. All surgeries and experimental procedures were performed during the light cycle. Experimental protocols were approved by the Animal Ethics Committee of the local institutional committee for animal use and care (McGill University, Qc, Canada). These protocols follow ethical guidelines for investigation of experimental pain in conscious animals of the IASP, the Canadian Institute of Health Research guidelines for animal care and scientific use.
Spared nerve injury (SNI). SNI was performed according to the method of Decosterd and Woolf^35. Rats were deeply anaesthetized with isofluorane (5%), anaesthesia was confirmed by the absence of a nociceptive reflex reaction to a paw pinch. The sciatic nerve was exposed at mid-thigh level distal to the trifurcation and freed of connective tissue; the three peripheral branches (sural, common peroneal, and tibial nerves) of the sciatic nerve were exposed without stretching nerve structures. Both tibial and common peroneal nerves were ligated and transected together. Carprofen (5 mg/kg) was administrated subcutaneously pre-surgery as well as three days every 24 hours post-surgery as analgesic. After SNI, each rat was housed in its home cage for 15 days until the neuropathy is developed.
Mechanical allodynia. On day 15 after SNI, mechanical allodynia was assessed via von Frey test^38. Rats were placed in a test chamber, and they were allowed to acclimate for 60 minutes. Tactile allodynia was determined by measuring paw withdrawal thresholds in response to mid-plantar hind paw stimuli with Calibrated von Frey filaments^36. These filaments are of a logarithmically incremental stiffness corresponding to an applied force ranging from 0.4 to 15 g. Every filament was applied during 10 seconds in the hind paw to measure the withdrawal threshold. The 2.0 g force filament was applied first; in the presence of a response, the next smaller filament was applied. In the absence of a response, the next higher filament was applied. After the first change in response, the test continued until six responses were collected. The paw withdrawal threshold was then converted to the cutaneous nociceptive threshold by using the “up-down” method^39. The stimulus intensity (filament stiffness) required to produce a response in 50% of the applications for each animal was defined as 50% withdrawal threshold (expressed in g). The 50% withdrawal threshold was determined according to the following equation: 50% Threshold (g)=(10^ [Xf+kδ])/10,000. Where Xf is the value of the last von Frey filament used (in logarithmic units), k is the correction factor based on the response patterns of a calibration table and the tabulated value based on the pattern of positive and negative responses, and δ indicates the average differences between stimuli in logarithmic units^38,39. In non-lesioned animals (naïve) a value 11.98-15 g was considered normal, while the presence of allodynia was considered when the 50% withdrawal threshold of the limb is less than 4 g. All nerve-ligated rats were verified to be allodynic before the experiments. Rats without allodynia were excluded.

In assay [1] the test system is neuropathic rats. The assay is described as follows: EEG power spectra (delta, theta, sigma bands) during NREM and REM sleep. The assay is classed as in vivo, male Wistar rats. Here is the method:
EEG and EMG recording. Six days after surgery (16 days post-SNI), mechanical allodynia was assessed via von Frey test, and EEG/EMG was recorded for a period of 6 h (from 6 AM to 12 PM). The treatments (described below) were performed at 6:00 A.M., right after the recording had started. […] Consecutive 10 s epochs were subjected to a fast Fourier transform (FFT), and EEG power spectra density was computed in the frequency range of 0-64 Hz^13.
To determine the variations in power spectra induced by the pharmacological treatment of CBD and antagonists, the power densities were summed up over the frequency band of 0-25 Hz (total power). The data were then standardized by expressing all power spectral densities at the different 0.5 Hz bin frequency ranges (delta, theta, and sigma) as a percentage relative to the total power of the same epoch^16. Frequency ranges were 0-3.5Hz for delta, 4-8.5Hz for theta, and 11-14 Hz for sigma bands. The sum of power densities over a frequency band following treatments were expressed as the percentage difference from that in or naïve+veh or NP+vehicle group in statistical analysis. In the experiments with WAY 100635 the NP+CBD was compared with NP+vehicle, NP+WAY, NP+WAY+CBD.
To assess whether CBD (20 mg/kg) might affect the microarchitecture during the sleep, the intensity Delta (0.5-4 Hz), Theta ([…]) and Sigma (10-15 Hz) waves were measured during 6 hours of light phase in the 3 groups of rats (Naïve, SNI+VEH and SNI+CBD 20mg/kg). Data were converted as a percentage of variation vs. naive animals and One-way ANOVA was performed on the power of delta, theta and sigma waves during NREM and REN sleep.
To assess whether the 5-HT1A selective antagonist WAY 100635 (2 mg/kg) might reverse the effect of CBD (20 mg/kg) in the enhancement of power density (Delta, Theta, and Sigma waves) during sleep, the power spectra were measured for 6 hours in four groups of rats. The first group were NP rats treated with CBD vehicle (n=8), the second group were NP rats treated with WAY 100635 alone at 2 mg/kg (n=6), the third group were NP rats treated with WAY 100635 (2 mg/kg)+CBD (20 mg/kg; n=6), and the fourth group were NP treated with CBD at 20 mg/kg (n=8). Data were converted as a percentage of variation vs NP animals treated with vehicle.

Assay [2] concerns neuropathic rats. The assay is described as follows: Sleep fragmentation analysis (Sleep Fragmentation Index). Format: in vivo, male Wistar rats. The following applies: NP rats; CBD 20 mg/kg i.p.; vs NP+VEH. On the procedure:
Sleep fragmentation analysis. Sleep Fragmentation Index (SFI) is determinant of excessive daytime sleepiness as it is characterized by repetitive short interruptions of sleep by periods of wakefulness. […] In this study, SFI is calculated as the total number of wakefulness episodes in 24 h divided by the total sleep time in hours during 24 h (REM+NREM).

The subject of a further assay is healthy rats. The following applies: intracerebroventricular injection 10 μg/5 μL; cited from earlier work.

SMILES strings stand for the structures. “Also recorded” adds a separate entry of the source.

Turning to `C=C(C)[C@@H]1CCC(C)=C[C@H]1c1c(O)cc(CCCCC)cc1O` [CBD, 2-[(1R,6R)-3-methyl-6-prop-1-en-2-ylcyclohex-2-en-1-yl]-5-pentylbenzene-1,3-diol], the “AUC of the antiallodynic effect” value with rats with SNI (10 mg/kg vs 20 mg/kg) is recorded as “not statistically different”; in the assay on rats with SNI (20 mg/kg group vs CBD 5 mg/kg (p<0.001) and vs vehicle (p<0.001)), “significantly higher”. For the same compound, in the assay on rats with SNI (SNI rats, 5 mg/kg i.p.), the antiallodynic effect result is recorded as “did not show any antiallodynic effect”. For the same compound, the “reversal of mechanical allodynia” value with rats with SNI (SNI rats, 10 mg/kg i.p., between 2 h and 4.5 h (p<0.05)) is on record as “able to reverse mechanical allodynia”; with rats with SNI (SNI rats, 20 mg/kg i.p., between 1 h and 5 h (p<0.05)), “able to reverse mechanical allodynia”. The “paw withdrawal threshold / mechanical allodynia, dose dependence” value in the assay on rats with SNI (SNI rats, CBD 5, 10 and 20 mg/kg intraperitoneally, 0.5-7.5 hours, vs vehicle) is “increasing the paw withdrawal threshold in a dose-dependent manner; also recorded: reduces mechanical allodynia in a dose-dependent manner; also recorded: reduces neuropathic pain”. In addition, the “duration of antiallodynic effects post-administration” value in the assay on rats with SNI (SNI rats, CBD i.p.) is “up to 4 hours”. For the same compound, the “power of Sigma waves during REM sleep, relative to NP rats treated with vehicle” value in the assay on neuropathic rats [1] (6 h, CBD 20 mg/kg) is listed as “no statistically significant differences between groups; also recorded: no differences were found”. Besides, the “power of Theta waves during REM sleep, relative to NP animals treated with vehicle” value in the assay on neuropathic rats [1] (6 h, CBD 20 mg/kg) is reported as “no statistically significant differences between groups”. In addition, the “power of theta waves during NREM sleep, relative to NP animals treated with vehicle” value in the assay with neuropathic rats [1] (6 h, CBD 20 mg/kg i.p.) is reported as “increases the intensity of the Theta waves; also recorded: increase in the theta power”. Moreover, the “Sigma waves during NREM sleep, relative to NP rats treated with vehicle” value in the assay on neuropathic rats [1] (6 h, CBD 20 mg/kg, WAY 100635 2 mg/kg) is recorded as “no significant main effects; also recorded: did not detect differences”. In addition, the “power of Delta waves during NREM sleep, relative to NP rats treated with vehicle” value in the assay on neuropathic rats [1] (6 h light phase, CBD 20 mg/kg i.p.) is given as “increase in the intensity of the power of Delta waves”. Also, in the assay on neuropathic rats [1] (NP rats, 6 h, CBD 20 mg/kg, WAY 100635 2 mg/kg), the “power of Delta waves during REM sleep, between groups (ANOVA)” value is “no statistically significant differences between groups”. Also, the “sleep fragmentation (sleep fragmentation index, SFI)” value with neuropathic rats [2] is listed as “decrease of the sleep fragment index (SFI) to normal levels; also recorded: attenuates the sleep fragmentation”. Besides, in the assay on healthy rats, the REM sleep result is reported as “decrease in REM sleep”. Also, in the assay with healthy rats, the wakefulness result is on record as “increase in wakefulness”.
